EC50 data for 81 compounds are collected here from patent publication US8969389B2, “Substituted 6-methylnicotinamides as mGluR5 positive allosteric modulators” (Vanderbilt University, priority 2010, dated 2015).

One may read the EC50 as the concentration giving half of the maximal effect.

One experiment deals with T1, rat mGluR5 (Rattus norvegicus, UniProt P31424).
T1 construct: expressed in transfected cells; host or cells: HEK (human embryonic kidney) cells
T1 sequence (P31424 21-1203): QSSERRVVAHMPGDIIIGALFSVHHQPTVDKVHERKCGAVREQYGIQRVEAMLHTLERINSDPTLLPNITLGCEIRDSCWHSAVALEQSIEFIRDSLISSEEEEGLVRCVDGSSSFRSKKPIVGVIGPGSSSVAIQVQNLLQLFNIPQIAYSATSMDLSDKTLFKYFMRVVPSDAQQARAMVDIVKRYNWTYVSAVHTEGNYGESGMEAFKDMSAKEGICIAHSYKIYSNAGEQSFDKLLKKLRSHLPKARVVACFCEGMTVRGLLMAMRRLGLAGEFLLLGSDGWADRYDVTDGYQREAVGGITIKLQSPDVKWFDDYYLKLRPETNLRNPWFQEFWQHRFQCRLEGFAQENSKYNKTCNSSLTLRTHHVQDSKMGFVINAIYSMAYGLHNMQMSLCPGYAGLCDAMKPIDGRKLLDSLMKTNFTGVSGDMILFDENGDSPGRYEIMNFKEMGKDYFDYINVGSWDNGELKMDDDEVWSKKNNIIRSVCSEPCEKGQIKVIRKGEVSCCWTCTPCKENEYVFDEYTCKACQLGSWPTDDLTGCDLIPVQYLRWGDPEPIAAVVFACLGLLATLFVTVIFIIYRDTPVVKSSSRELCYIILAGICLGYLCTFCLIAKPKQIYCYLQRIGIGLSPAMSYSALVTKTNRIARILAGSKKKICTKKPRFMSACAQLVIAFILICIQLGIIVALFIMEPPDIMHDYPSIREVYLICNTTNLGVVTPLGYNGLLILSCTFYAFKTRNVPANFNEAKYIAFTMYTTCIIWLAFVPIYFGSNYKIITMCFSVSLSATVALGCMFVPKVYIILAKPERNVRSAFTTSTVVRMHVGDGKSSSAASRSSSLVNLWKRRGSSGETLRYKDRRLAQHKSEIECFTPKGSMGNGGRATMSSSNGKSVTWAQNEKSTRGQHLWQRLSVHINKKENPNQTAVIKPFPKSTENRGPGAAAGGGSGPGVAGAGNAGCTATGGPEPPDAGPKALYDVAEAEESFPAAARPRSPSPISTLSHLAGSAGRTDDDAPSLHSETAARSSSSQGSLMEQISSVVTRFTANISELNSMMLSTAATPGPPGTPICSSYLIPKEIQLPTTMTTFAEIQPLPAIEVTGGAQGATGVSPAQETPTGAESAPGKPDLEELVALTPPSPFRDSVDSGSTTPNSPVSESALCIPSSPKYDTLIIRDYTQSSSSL
The experiment is described as follows: Potentiation of glutamate response in HEK cells transfected with rat mGluR5 (Ca2+ fluorescence, FDSS). Format: cell-based. To be noted: (R) and (S) enantiomers, Tables 3A/3B; read-out: mGluR5 EC50. The protocol: Human embryonic kidney (HEK) cells transfected with rat mGluR5 were plated in clear bottom assay plates for assay in a Functional Drug Screening System (FDSS). In the alternative assay, HEK cells transfected with human mGluR5 (H10H cell line) were plated for assay in the FDSS. […] The cells were loaded with a Ca^2+-sensitive fluorescent dye (e.g., Fluo-4), and the plates were washed and placed in the FDSS instrument. After establishment of a fluorescence baseline for twelve seconds, the compounds of the present invention were added to the cells, and the response in cells was measured. Five minutes later, an mGluR5 agonist (e.g., glutamate, 3,5-dihydroxyphenylglycine, or quisqualate) was added to the cells, and the response of the cells was measured. Potentiation of the agonist response of mGluR5 by the compounds in the present invention was observed as an increase in response to non-maximal concentrations of agonist (here, glutamate) in the presence of compound compared to the response to agonist in the absence of compound.
The above described assay operated in two modes. In the first mode, a range of concentrations of the present compounds were added to cells, followed by a single fixed concentration of agonist. If a compound acted as a potentiator, an EC50 value for potentiation and a maximum extent of potentiation by the compound at this concentration of agonist was determined by non-linear curve fitting. In the second mode, several fixed concentrations of the present compounds were added to various wells on a plate, followed by a range of concentrations of agonist for each concentration of present compound; the EC50 values for the agonist at each concentration of compound were determined by non-linear curve fitting. A decrease in the EC50 value of the agonist with increasing concentrations of the present compounds (a leftward shift of the agonist concentration-response curve) is an indication of the degree of mGluR5 potentiation at a given concentration of the present compound. An increase in the EC50 value of the agonist with increasing concentrations of the present compounds (a rightward shift of the agonist concentration-response curve) is an indication of the degree of mGluR5 antagonism at a given concentration of the present compound. The second mode also indicates whether the present compounds also affect the maximum response to mGluR5 to agonists.
In the case of `C[C@@H](NC(=O)c1ccc(COc2cccc(F)c2)nc1)C(C)(C)C` [Example 13a, (R)-N-(3,3-dimethylbutan-2-yl)-6-((3-fluorophenoxy)methyl)nicotinamide], the EC50 was 81 nM.

For the compound `C[C@@H](NC(=O)c1ccc(COc2cccc(F)c2)nc1)C1CCCCC1` [Example 11a, (R)-N-(1-cyclohexylethyl)-6-((3-fluorophenoxy)methyl)nicotinamide], the EC50 was 130 nM.

On to `C[C@H](NC(=O)c1ccc(COc2cc(F)cc(F)c2)nc1)C1CCCCC1` [Example 12b, (S)-N-(1-cyclohexylethyl)-6-((3,5-difluorophenoxy)methyl)nicotinamide], for which the EC50 was more than 10000 nM.

Still in this experiment, the particulars now being: HEK cells transfected with rat mGluR5; read-out: rmGlu5 PAM EC50.
Regarding `O=C(NC1(c2ccccc2)CCC1)c1ccc(COc2cccc(F)c2)nc1`, the EC50 was 912 nM.

Turning to `O=C(NC1CCC1)c1ccc(COc2cc(F)cc(F)c2)nc1`, the EC50 is 3390 nM.

As for `COCCNC(=O)c1ccc(COc2ccccc2)nc1`, the EC50 was more than 10000 nM.

With `N#Cc1cc(F)cc(OCc2ccc(C(=O)NC3CCC3)cn2)c1`, the EC50 was more than 10000 nM.

As to `O=C(NCCCN1CCOCC1)c1ccc(COc2ccccc2)nc1`, the EC50 was more than 10000 nM.

For the compound `CC(C)(C)CCNC(=O)c1ccc(COc2cc(F)cc(C#N)c2)nc1`, the EC50 was more than 10000 nM.

On to `CC(C)NC(=O)c1ccc(COc2ccccc2)nc1`, for which the 50% effective concentration (EC50) is more than 10000 nM.

As to `C[C@@H](NC(=O)c1ccc(COc2ccncc2)nc1)C1CCCCC1`, the EC50 is 2600 nM.

`COc1cccc(OCc2ccc(C(=O)N[C@H](C)C3CCCCC3)cn2)c1`: the half-maximal effective concentration (EC50) was determined as 1200 nM.

Regarding `C[C@@H](NC(=O)c1ccc(COc2cccc(F)c2)nc1)C1CC1`, the EC50 worked out at 1060 nM.

Regarding `C[C@@H](NC(=O)c1ccc(COc2cccc(Cl)c2)nc1)C1CCCCC1`, the EC50 is 210 nM.

Consider `O=C(Nc1cccc(Cl)c1)c1ccc(COc2ccccc2)nc1`, for which the EC50 was more than 10000 nM.

Consider `CC(NC(=O)c1ccc(COc2ccccc2)nc1)C1CCCCC1` (stereo not drawn), for which the EC50 is 188 nM.

As for `C[C@@H](NC(=O)c1ccc(COc2ccc(C#N)cc2)nc1)C1CCCCC1`, the EC50 worked out at 2500 nM.

Turning to `O=C(Nc1nccs1)c1ccc(COc2cccc(F)c2)nc1`, the EC50 is more than 10000 nM.

For `C[C@@H](NC(=O)c1ccc(COc2ccccc2F)nc1)C1CCCCC1`, the EC50 came to 160 nM.

As to `O=C(Nc1ccc(Cl)cc1F)c1ccc(COc2ccccc2)nc1`, the EC50 is more than 10000 nM.

On to `CC(C)NC(=O)c1ccc(COc2cc(F)cc(F)c2)nc1`, for which the EC50 was more than 10000 nM.

Regarding `O=C(NC12CC3CC(CC(C3)C1)C2)c1ccc(COc2ccccc2)nc1`, the EC50 came to 603 nM.

Consider `O=C(NC1(c2ccccc2)CCC1)c1ccc(COc2cc(F)cc(F)c2)nc1`, for which the EC50 is more than 10000 nM.

With `C[C@@H](NC(=O)c1ccc(COc2cccc(F)c2)nc1)C1CCCCC1` [drawing 67], the EC50 was 130 nM.

On to `CC[C@@H](C)NC(=O)c1ccc(COc2cccc(F)c2)nc1`, for which the EC50 stood at 3310 nM.

As to `COCCCNC(=O)c1ccc(COc2ccccc2)nc1`, the EC50 is more than 10000 nM.

For `O=C(Nc1ccc(F)cn1)c1ccc(COc2ccccc2)nc1`, the EC50 turned out to be 1510 nM.

Consider `C[C@H](NC(=O)c1ccc(COc2cccc(F)c2)nc1)C1CCCCC1` [drawing 152], for which the half-maximal effective concentration (EC50) was more than 10000 nM.

As to `O=C(NCCN1CCOCC1)c1ccc(COc2ccccc2)nc1`, the EC50 was more than 10000 nM.

On to `N#Cc1cc(F)cc(OCc2ccc(C(=O)NC3(c4ccccc4)CCC3)cn2)c1`, for which the half-maximal effective concentration (EC50) was more than 10000 nM.

For the compound `C[C@@H](NC(=O)c1ccc(COc2ccccn2)nc1)C1CCCCC1`, the EC50 is more than 10000 nM.

Turning to `O=C(Nc1cccc(C(F)(F)F)c1)c1ccc(COc2ccccc2)nc1`, the EC50 was more than 10000 nM.

As for `C[C@H](NC(=O)c1ccc(COc2cc(F)cc(C#N)c2)nc1)C1CCCCC1`, the EC50 was more than 10000 nM.

On to `O=C(NC1CC2CCC1C2)c1ccc(COc2ccccc2)nc1` (stereo not drawn) [drawing 70], for which the concentration giving a half-maximal response (EC50) was found to be 151 nM.

Take `CC(C)(C)CCNC(=O)c1ccc(COc2cccc(F)c2)nc1`: the EC50 was 302 nM.

On to `O=C(Nc1ccccc1F)c1ccc(COc2ccccc2)nc1`, for which the EC50 was found to be 501 nM.

With `O=C(Nc1cccc(F)c1)c1ccc(COc2ccccc2)nc1`, the EC50 was more than 10000 nM.

Take `C[C@@H](NC(=O)c1ccc(COc2ccccc2)nc1)C1CCCCC1` [drawing 78]: the EC50 amounted to 257 nM.

Consider `CC(C)NC(=O)c1ccc(COc2cccc(F)c2)nc1`, for which the EC50 was more than 10000 nM.

On to `O=C(NC1CCc2ccccc21)c1ccc(COc2ccccc2)nc1` (stereo not drawn) [drawing 138], for which the EC50 was more than 10000 nM.

Turning to `O=C(Nc1ncccc1F)c1ccc(COc2ccccc2)nc1`, the EC50 was more than 10000 nM.

Consider `O=C(Nc1ccc(Cl)cn1)c1ccc(COc2ccccc2)nc1`, for which the EC50 is more than 10000 nM.

As for `O=C(NC1CCC1)c1ccc(COc2cccc(F)c2)nc1`, the EC50 is 3470 nM.

As to `C[C@@H](NC(=O)c1ccc(COc2ccc(F)cc2)nc1)C1CCCCC1`, the EC50 is 360 nM.

For the compound `O=C(Nc1nncs1)c1ccc(COc2ccccc2)nc1`, the EC50 was more than 10000 nM.

As for `C[C@@H](NC(=O)c1ccc(COc2ccccc2Cl)nc1)C1CCCCC1`, the EC50 was more than 10000 nM.

For `CN(C)CCCNC(=O)c1ccc(COc2ccccc2)nc1`, the EC50 is more than 10000 nM.

For the compound `O=C(NCc1ccccn1)c1ccc(COc2ccccc2)nc1`, the EC50 was more than 10000 nM.

`C[C@@H](NC(=O)c1ccc(COc2cccc(F)c2)nc1)C1CCCCC1` [drawing 73]: the EC50 was 170 nM.

As for `O=C(Nc1ccc(F)cc1F)c1ccc(COc2ccccc2)nc1`, the 50% effective concentration (EC50) stood at 501 nM.

Turning to `O=C(NC1CCc2ccccc21)c1ccc(COc2ccccc2)nc1` (stereo not drawn) [drawing 113], the EC50 is more than 10000 nM.

Take `O=C(NC1CCCCC1)c1ccc(COc2cc(F)cc(F)c2)nc1`: the EC50 is more than 10000 nM.

For `O=C(NCC1CCCCC1)c1ccc(COc2ccccc2)nc1`, the EC50 amounted to 575 nM.

Turning to `O=C(N[C@H](C1CC1)C(F)(F)F)c1ccc(COc2cccc(F)c2)nc1`, the EC50 was more than 10000 nM.

As for `CC(C)NC(=O)c1ccc(COc2cc(F)cc(C#N)c2)nc1`, the EC50 is more than 10000 nM.

Consider `CC(C)CCNC(=O)c1ccc(COc2ccccc2)nc1`, for which the EC50 turned out to be 966 nM.

Consider `C[C@@H](NC(=O)c1ccc(COc2ccccc2C#N)nc1)C1CCCCC1`, for which the EC50 is more than 10000 nM.

On to `O=C(NC1C2CC3CC(C2)CC1C3)c1ccc(COc2ccccc2)nc1` (stereo not drawn), for which the EC50 came to 288 nM.

For `C[C@H](NC(=O)c1ccc(COc2ccccc2)nc1)C1CCCCC1`, the EC50 stood at 2880 nM.

Take `O=C(Nc1ccccn1)c1ccc(COc2ccccc2)nc1`: the EC50 amounted to 5250 nM.

Take `CC(C)[C@@H](C)NC(=O)c1ccc(COc2cccc(F)c2)nc1`: the concentration giving a half-maximal response (EC50) was 158 nM.

For `O=C(NCCc1ccccn1)c1ccc(COc2ccccc2)nc1`, the EC50 is more than 10000 nM.

Turning to `O=C(Nc1nccs1)c1ccc(COc2cc(F)cc(F)c2)nc1`, the EC50 is more than 10000 nM.

With `CC(C)CNC(=O)c1ccc(COc2ccccc2)nc1`, the EC50 is 1700 nM.

Take `O=C(Nc1ccc(Cl)cc1)c1ccc(COc2ccccc2)nc1`: the EC50 was more than 10000 nM.

On to `C[C@@H](NC(=O)c1ccc(COc2ccccc2)nc1)C1CCCCC1` [drawing 69], for which the EC50 was 146 nM.

Take `O=C(NCCc1ccc(Cl)cc1)c1ccc(COc2ccccc2)nc1`: the EC50 was more than 10000 nM.

Take `C[C@@H](NC(=O)c1ccc(COc2cccc(F)c2)nc1)C1CCOCC1`: the EC50 was determined as 3240 nM.

In the case of `O=C(Nc1cccc(F)c1F)c1ccc(COc2ccccc2)nc1`, the EC50 is more than 10000 nM.

As to `C[C@H](NC(=O)c1ccc(COc2cc(F)cc(F)c2)nc1)C1CCCCC1` [drawing 149], the EC50 was more than 10000 nM.

As to `COCC(C)NC(=O)c1ccc(COc2cccc(F)c2)nc1` (stereo not drawn), the EC50 is more than 10000 nM.

For `C[C@@H](NC(=O)c1ccc(COc2cccc(C#N)c2)nc1)C1CCCCC1`, the EC50 stood at 220 nM.

Take `O=C(NC1CC2CCC1C2)c1ccc(COc2cccc(F)c2)nc1` (stereo not drawn): the EC50 is 75.9 nM.

In the case of `O=C(NCC1CC1)c1ccc(COc2ccccc2)nc1`, the EC50 was more than 10000 nM.

On to `C[C@@H](NC(=O)c1ccc(COc2cccc(F)c2)nc1)C(C)(C)C` [drawing 65], for which the EC50 worked out at 81.3 nM.

Turning to `COc1ccccc1OCc1ccc(C(=O)N[C@H](C)C2CCCCC2)cn1`, the EC50 was 3400 nM.

Regarding `O=C(NC1(c2ccccc2)CCC1)c1ccc(COc2ccccc2)nc1`, the EC50 was more than 10000 nM.

On to `C[C@@H](NC(=O)c1ccc(COc2cc(F)cc(C#N)c2)nc1)C1CCCCC1`, for which the EC50 was more than 10000 nM.

Turning to `O=C(NC(C1CC1)C1CC1)c1ccc(COc2cccc(F)c2)nc1`, the EC50 worked out at 1260 nM.

`C[C@@H](NC(=O)c1ccc(COc2cccnc2)nc1)C1CCCCC1` [drawing 109]: the EC50 was determined as 4900 nM.

Turning to `C[C@@H](NC(=O)c1ccc(COc2cccc(F)c2)nc1)C1CCCCC1` [drawing 74], the EC50 was 172 nM.
